Laboratory results: publication PMC6022228, “Introducing novel potent anticancer agents of 1H-benzo[f]chromene scaffolds, targeting c-Src kinase enzyme with MDA-MB-231 cell line anti-invasion effect” (Journal of Enzyme Inhibition and Medicinal Chemistry, 2018)
≈ marks a conversion by molar mass, not a printed value. Where “and” joins values, the source holds several entries; their conditions need not be identical. Equal values may be shown once. Read-outs that look alike come from different tables or passages of the source.

Legend:
HepG-2 = assay: MTT viability assay, HepG-2 (liver cancer); type: cell-based; conditions: Homo sapiens, HepG2, 24 h incubation, mean ± standard error
Description: (§1) Compounds 4a–h and 6a–h were initially evaluated for in vitro antitumour activity against three different human cell lines: MCF-7, HCT-116, and HepG-2, and only the representative active cytotoxic compounds were further evaluated against the normal HFL-1 cell line. The in vitro cytotoxicity evaluation was performed at the Regional Center for Mycology & Biotechnology (RCMP), Al-Azhar University under different concentrations (50, 25, 12.5, 6.25, 3.125, 1.56, and 0 µg/mL); Vinblastine and Doxorubicin are used as reference cytotoxic compounds. The measurements of cell growth and the in vitro cytotoxicity evaluation were determined using viability assay as described in literature[31–33] and the result was cited in Table 1 and Figure 2.
(§2) The in vitro cytotoxic evaluation of the prepared compounds 4a–h and 6a–h was performed against MCF-7 (breast cancer), HCT-116 (human colon cancer), HepG-2 (liver cancer), and HFL-1(normal fibroblast lung) using the 3-(4,5-dimethylthiazol-2-yl)-2,5-diphenyl tetrazolium bromide (MTT) colorimetric assay as described in literature. […] The results were expressed as growth inhibitory concentration (IC50) values, which represent the compounds’ concentrations required to produce a 50% inhibition of the cell growth after 24 h of incubation, compared to the untreated controls as shown in Table 1 and Figure 2.

HCT-116 = assay: MTT viability assay, HCT-116 (human colon cancer); type: cell-based; conditions: 24 h incubation, mean ± standard error
Description: as §1, §2

MCF-7 = assay: MTT viability assay, MCF-7 (breast cancer); type: cell-based; conditions: Homo sapiens, MCF7, 24 h incubation, mean ± standard error
Description: as §1, §2

MDA-MB-231 cell line = assay: Cell invasion assay; type: cell-based; conditions: Homo sapiens
Description: The cell invasion assay was performed by Reaction Biology Corporation, One Great Valley Parkway, PA. All compounds were dissolved in DMSO and tested for their ability to cell invasion assay. Compounds 4c, 6e, and reference compound bosutinib were purchased from Sellechem (Houston, TX). Corning Bio Coat Fluoro Blok Insert System-96-well plates were purchased from Corning (Corning Incorporated, Tewksbury, MA). Calcein AM labelling reagent was purchased from Molecular Probes (Eugene, Oregon). MDA-MB-231 cell line was purchased from American Type Culture Collection (Manassas, VA). MDA-MB-231 cells were grown in DMEM medium supplemented with 10% foetal bovine serum (FBS), 100 µg/mL of penicillin, and 100 µg/mL of streptomycin. Cultures were maintained at 37 °C in a humidified atmosphere of 5% CO2 and 95% air-following incubation; medium was carefully removed from the apical chambers. The insert system was transferred into a second 96-square well plate containing 200 µl/well of 4 µg/mL Calcein AM in HBSS. The plates were incubated for 1 h at 37 °C, 5% CO2. Fluorescence of invaded cells was read at wavelengths of 492/535 nm (Ex/Em) from bottom reading using Envision 2104 Multilabel Reader (PerkinElmer, Santa Clara, CA). The IC50 curves were plotted and IC50 values were calculated using the Graph Pad Prism 4 program for windows (Graph Pad software, San Diego California. www.graphpad.com) based on a sigmoidal dose-response equation.
Tumour invasion is a common feature of triple-negative breast cancers. […] The invasion process has become an important prerequisite for cancer progression and metastasis. […] A bosutinib drug was used as a control ant-invasive agent. […] The obtained data might confirm that the cytotoxicity of novel molecules led to the death of the cancer cells and stopped the metastatic processes.

c-Src kinase = target: T1, c-Src kinase (Homo sapiens, UniProt P12931); assay: c-Src kinase assay (HTScan Src Kinase Assay Kit); type: biochemical; conditions: GST-Src kinase, triplicate; read-out: Inhibition of c-Src kinase activity, IC50
T1 construct: purchased Cell Signaling Technology (Danvers, MA) 7776
T1 sequence (P12931 whole entry): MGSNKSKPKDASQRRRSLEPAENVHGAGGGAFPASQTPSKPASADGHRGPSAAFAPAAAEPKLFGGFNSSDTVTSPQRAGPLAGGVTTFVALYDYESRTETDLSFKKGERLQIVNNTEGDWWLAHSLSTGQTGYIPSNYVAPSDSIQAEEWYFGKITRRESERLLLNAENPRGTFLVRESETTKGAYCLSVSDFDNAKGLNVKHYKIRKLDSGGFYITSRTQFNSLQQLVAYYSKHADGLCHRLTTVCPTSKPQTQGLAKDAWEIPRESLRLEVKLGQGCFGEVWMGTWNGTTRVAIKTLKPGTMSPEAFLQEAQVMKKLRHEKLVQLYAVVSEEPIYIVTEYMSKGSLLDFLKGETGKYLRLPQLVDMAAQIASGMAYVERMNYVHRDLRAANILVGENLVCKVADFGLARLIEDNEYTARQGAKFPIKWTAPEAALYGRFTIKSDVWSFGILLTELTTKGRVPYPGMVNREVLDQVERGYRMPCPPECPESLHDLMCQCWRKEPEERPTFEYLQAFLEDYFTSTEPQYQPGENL
Description: Streptavidin-coated plates were purchased from Pierce (Rockford, IL). […] The reaction mixture was incubated for 30 min at room temperature. The kinase reaction was stopped with the addition of 50 µL of 50 mM EDTA (pH 8.0). […] At the end of the incubation, the wells were washed three times with 200 µL of 0.05% Tween-20 in PBS buffer (PBS/T). After that to each well was added 100 µL of phosphotyrosine antibody (P-Tyr-100) (1:1000 dilution in PBS/T with 1% BSA) and the wells were incubated for another 60 min. After washing three times with 0.05% Tween-20 in PBS/T, the wells were incubated with 100 µL secondary anti-mouse IgG antibody, which was HRP-conjugated (1:500 dilution in PBS/T with 1% BSA) for next 30 min at room temperature. The wells were washed five times with 0.05% Tween-20 in PBS and then were incubated with 100 µL of 3,3′,5,5′-tetramethylbenzidine dihydrochloride substrate for 5 min. […] IC50 values of the compounds were calculated using ORIGIN 6.0 (Origin Lab Corporation, Northampton, MA) software. […] All the experiments were carried out in triplicate.

[1] = system: caspases 3/7 in MDA-MB-231 cells; assay: Caspase-Glo 3/7 activity assay; type: cell-based; conditions: Homo sapiens, 24 h treatment, 10 concentrations, read-out: Caspase-Glo 3/7 activity assay, MDA-MB-231 cell line, IC50
Description: The Caspase-Glo 3/7 activity assay was performed by Reaction Biology Corporation, One Great Valley Parkway, PA. Examined compounds 4c, 4e, 4h, 6d, and 6e were dissolved in DMSO as 20 mM stock and tested for their ability to Caspase-Glo 3/7 activity assay. […] Caspase-Glo 3/7 activity assay reagent was purchased from Promega (Madison, WI). MDA-MB-231 cell line was provided by ATCC. MDA-MB-231 cell line culture conditions: DMEM with 10% FBS. 100 µg/mL penicillin and 100 µg/mL streptomycin were added to the culture media. Cultures were maintained at 37 °C in a humidified atmosphere of 5% CO2 and 95% air.
Caspases are […] that promote apoptosis. Caspases are vital biochemical features of apoptotic signalling. […] To determine whether the cell growth inhibition in response to the benzochromene derivatives was mediated by apoptosis and was caspase dependent, MDA-MB-231 cells were treated with 10 different concentrations of the target compounds for 24 h.

HFL-1 = assay: MTT viability assay, HFL-1 (normal fibroblast lung); type: cell-based; conditions: Homo sapiens, HFL1, 24 h incubation, normal cell line, mean ± standard error
Description: as §1, §2

| Structure (SMILES) | IC50 (HepG-2) | IC50 (HCT-116) | melting point | IC50 (MCF-7) | IC50 (MDA-MB-231 cell line; Table 2, read-out: IC50 anti-invasion, MDA-MB-231 breast cancer cells) | IC50 (MDA-MB-231 cell line; read-out: IC50 anti-invasion activity, MDA-MB-231) | IC50 (c-Src kinase) | IC50 [1] | IC50 (HFL-1) |
| --- | --- | --- | --- | --- | --- | --- | --- | --- | --- |
| N#CC1=C(N)Oc2ccc3cc(Br)ccc3c2C1c1ccccc1 (centres unmarked) [Compound 4a, 3-Amino-8-bromo-1-phenyl-1H-benzo[f]chromene-2-carbonitrile] | 0.7 ± 0.5 µg/mL (≈ 1.86 µM) | 1.2 ± 0.97 µg/mL (≈ 3.18 µM) | 245 to 246 °C | 0.9 ± 0.29 µg/mL (≈ 2.39 µM) | – | – | – | – | – |
| N#CC1=C(N)Oc2ccc3cc(Br)ccc3c2C1c1ccc(F)cc1 (centres unmarked) [Compound 4b, 3-Amino-8-bromo-1-(4-fluorophenyl)-1H-benzo[f]chromene-2-carbonitrile] | 0.8 ± 0.12 µg/mL (≈ 2.02 µM) | 1 ± 0.12 µg/mL (≈ 2.53 µM) | 242 to 243 °C | 5.2 ± 0.03 µg/mL (≈ 13.2 µM) | – | – | – | – | – |
| N#CC1=C(N)Oc2ccc3cc(Br)ccc3c2C1c1ccc(Cl)cc1 (centres unmarked) [Compound 4c, 3-Amino-8-bromo-1-(4-chlorophenyl)-1H-benzo[f]chromene-2-carbonitrile] | 1.1 ± 0.12 µg/mL (≈ 2.67 µM) | 0.7 ± 0.11 µg/mL (≈ 1.7 µM) | 260 to 261 °C | 0.5 ± 0.23 µg/mL (≈ 1.21 µM) | 10.8 µM | 10.5 µM | 0.009 to 0.329 µM and 0.089 µM | 22.6 µM | 15.2 ± 0.1 µg/mL (≈ 36.9 µM) |
| N#CC1=C(N)Oc2ccc3cc(Br)ccc3c2C1c1ccc(Br)cc1 (centres unmarked) [Compound 4d, 3-Amino-8-bromo-1-(4-bromophenyl)-1H-benzo[f]chromene-2-carbonitrile] | 1.8 ± 0.2 µg/mL (≈ 3.95 µM) | 0.5 ± 0.35 µg/mL (≈ 1.1 µM) | 250 to 251 °C | 2.5 ± 0.14 µg/mL (≈ 5.48 µM) | – | – | – | – | – |
| Cc1ccc(C2C(C#N)=C(N)Oc3ccc4cc(Br)ccc4c32)cc1 (centres unmarked) [Compound 4e, 3-Amino-8-bromo-1-(4-methylphenyl)-1H-benzo[f]chromene-2-carbonitrile] | 0.9 µg/mL (≈ 2.3 µM) | 0.7 ± 0.25 µg/mL (≈ 1.79 µM) | 215 to 216 °C | 2.5 ± 0.18 µg/mL (≈ 6.39 µM) | – | – | 0.009 µM | 19.5 µM | 22.4 ± 0.21 µg/mL (≈ 57.2 µM) |
| COc1ccc(C2C(C#N)=C(N)Oc3ccc4cc(Br)ccc4c32)cc1 (centres unmarked) [Compound 4f, 3-Amino-8-bromo-1-(4-methoxyphenyl)-1H-benzo[f]chromene-2-carbonitrile] | 4.4 ± 0.05 µg/mL (≈ 10.8 µM) | 44.9 ± 0.14 µg/mL (≈ 110 µM) | 234 to 235 °C | 3.8 ± 0.36 µg/mL (≈ 9.33 µM) | – | – | – | – | – |
| COc1ccc(C2C(C#N)=C(N)Oc3ccc4cc(Br)ccc4c32)c(OC)c1 (centres unmarked) [Compound 4g, 3-Amino-8-bromo-1-(2,4-dimethoxyphenyl)-1H-benzo[f]chromene-2-carbonitrile] | 2.8 ± 0.17 µg/mL (≈ 6.4 µM) | 3.7 ± 0.15 µg/mL (≈ 8.46 µM) | 220 to 221 °C | 3.6 ± 0.01 µg/mL (≈ 8.23 µM) | – | – | – | – | – |
| COc1ccc(C2C(C#N)=C(N)Oc3ccc4cc(Br)ccc4c32)cc1OC (centres unmarked) [Compound 4h, 3-Amino-8-bromo-1-(3,4-dimethoxyphenyl)-1H-benzo[f]chromene-2-carbonitrile] | 11 ± 0.02 µg/mL (≈ 25.2 µM) | 4.1 ± 0.16 µg/mL (≈ 9.38 µM) | 200 to 201 °C | 0.66 ± 0.04 µg/mL (≈ 1.51 µM) | – | – | 0.214 to 0.329 µM and 0.214 µM | 31.5 µM | 12.9 ± 0.13 µg/mL (≈ 29.5 µM) |
| COc1ccc2c3c(ccc2c1)OC(N)=C(C#N)C3c1ccccc1 (centres unmarked) [Compound 6a, 3-Amino-1-phenyl-8-methoxy-1H-benzo[f]chromene-2-carbonitrile] | 11.2 ± 0.18 µg/mL (≈ 34.1 µM) | 2.1 ± 0.23 µg/mL (≈ 6.4 µM) | 237 to 238 °C | 2.7 ± 0.2 µg/mL (≈ 8.22 µM) | – | – | – | – | – |
